Test results published in patent US20250326744A1, “PIPERAZINE DERIVATIVE OR SALT THEREOF, AND PHARMACEUTICAL COMPOSITION” (priority 2022, published 2025).
Where a name gives a salt, the structure may show the parent alone.

System: mexY (EC) strain
Assay: Efflux ability inhibition effect on drug efflux pump MexY (Test Examples 1 and 3): proliferation (OD595) of mexY (EC) strain with EM or LVFX at 1/4 MIC, EC75
Type: cell-based, Escherichia coli
Details: Table 51, Test Example 1, 16 to 20 hours culture, OD595; for EC75, mexY (EC) strain, EM: combined with EM at 1/4 MIC; for EC75, mexY (EC) strain, LVFX: combined with LVFX at 1/4 MIC
Experimental: The efflux ability inhibition effect of the test compound on the drug efflux pump was evaluated using the bacterial proliferative ability in the presence of EM or LVFX as an index.
EM is a macrolide antibacterial agent and is a drug that is discharged outside the bacteria by MexB and MexY LVFX is a quinolone antibacterial agent and is a drug that is discharged outside the bacteria by MexB and MexY In a case where the test compound has an efflux ability inhibitory ability against the drug efflux pump, the proliferation of bacteria is suppressed by the combined use of EM or LVFX and the test compound, as compared with the case where EM or LVFX is used alone.
A mutant strain (hereinafter, referred to as an “mexB (EC) strain”) obtained by transferring the genes of the main multidrug efflux system MexAB-OprM of Pseudomonas aeruginosa described in Nature, 2013, Vol. 500, pp. 102 to 106 as a plasmid into Escherichia coli strains in which the acrB and tolC genes of the multidrug efflux system AcrAB-TolC were deleted as described in Journal of Infection and Chemotherapy 2008, Vol. 14, pp. 23 to 29, and a gene transfer strain (hereinafter, referred to as an “mexY (EC) strain”) of another main multidrug efflux system MexXY-OprM of Pseudomonas aeruginosa were used for the evaluation of test compounds.
In the mexB (EC) strain, an expression level of MexB of the drug efflux pump is accelerated, and in the mexY (EC) strain, an expression level of MexY of the drug efflux pump is accelerated.
For culturing each Escherichia coli strain, a 96-well plate (amount of culture medium per well: 100 μL) was used and Luria-Bertani broth (LB) culture medium was used. The inoculation amount of the bacteria was set to 10^4 to 5 CFU/well.
The mexB (EC) strain and the mexY (EC) strain were cultured for 16 to 20 hours in a culture medium to which EM or LVFX and test compounds at various concentrations (0 to 800 μM) were added, and the proliferation of the bacterial strains was evaluated by optical turbidity at 595 nm (OD595). The concentration of the antibacterial agents (EM and LVFX) in the culture medium were each set to ¼ of the minimum inhibitory concentration (MIC) (hereinafter, referred to as ¼ MIC) of the single antibacterial agent.
The proliferation of bacteria in a case where the antibacterial agent was added at the concentration of ¼ MIC in a case where the test compound was not added was measured, and compared with the proliferation of bacteria in a case where the test compound was contained, and the lowest concentration of the test compound at which the proliferation was inhibited by 75% or more was defined as the drug efflux pump inhibitory ability of the test compound as 75% inhibitory effect concentration (EC75).
The drug efflux pump inhibitory ability of each test compound in a case of being used in combination with the antibacterial agent against the mexB (EC) strain and the mexY (EC) strain was evaluated as follows according to the value of EC75. • S: EC75≤[…] • A: 12.5 μM<EC75≤25 μM • B: 25 μM<EC75≤100 μM • C: […]
In the same manner as in Test Example 1, the efflux ability inhibition effect of the test compound on the drug efflux pump was evaluated using the bacterial proliferation ability in the presence of EM or LVFX as an index.

## CCOc1cccc(F)c1CN1CCN(C(=O)[C@H](N)C2CCN(CCn3c(=O)ccc4ncc(F)cc43)CC2)CC1 [Example 14, Hydrobromide of (R)-1-(2-(4-(1-amino-2-(4-(2-ethoxy-6-fluorobenzyl)piperazin-1-yl)-2-oxoethyl)piperidin-1-yl)ethyl)-7-fluoro-1,5-naphthyridin-2(1H)-one]
  EC75, mexY (EC) strain, EM: B (25 μM<EC75≤100 μM)
  EC75, mexY (EC) strain, LVFX: B (25 μM<EC75≤100 μM)

## CCOc1cccc(F)c1CN1CCN(C(=O)[C@H](N)C2CCN(CCC3CCCC3)CC2)CC1 [Example 41, Hydrobromide of (R)-2-amino-2-(1-(2-cyclopentylethyl)piperidin-4-yl)-1-(4-(2-ethoxy-6-fluorobenzyl)piperazin-1-yl) ethan-1-one]
  EC75, mexY (EC) strain, EM: A (12.5 μM<EC75≤25 μM)
  EC75, mexY (EC) strain, LVFX: A (12.5 μM<EC75≤25 μM)

## CCOc1cccc(F)c1CN1CCN(C(=O)[C@H](N)C2CCN(CCC3CCCCC3)CC2)CC1 [Example 47, Hydrobromide of (R)-2-amino-2-(1-(2-cyclohexylethyl)piperidin-4-yl)-1-(4-(2-ethoxy-6-fluorobenzyl)piperazin-1-yl)ethan-1-one]
  EC75, mexY (EC) strain, EM: A (12.5 μM<EC75≤25 μM)
  EC75, mexY (EC) strain, LVFX: A (12.5 μM<EC75≤25 μM)

## CCOc1cccc(F)c1CN1CCN(C(=O)[C@H](N)C2CCN(CC(F)c3ccccc3)CC2)CC1 (stereo partly drawn) [Example 59, Hydrobromide of (2R)-2-amino-1-(4-(2-ethoxy-6-fluorobenzyl)piperazin-1-yl)-2-(1-(2-fluoro-2-phenylethyl)piperidin-4-yl) ethan-1-one]
  EC75, mexY (EC) strain, EM: B (25 μM<EC75≤100 μM)
  EC75, mexY (EC) strain, LVFX: B (25 μM<EC75≤100 μM)

## CCOc1cccc(F)c1CN1CCN(C(=O)[C@H](N)C2CCN(CCc3cc(Cl)ccc3-c3ccccc3C#N)CC2)CC1 [Example 64, Hydrobromide of (R)-2′-(2-(4-(1-amino-2-(4-(2-ethoxy-6-fluorobenzyl)piperazin-1-yl)-2-oxoethyl)piperidin-1-yl)ethyl)-4′-chloro-[1,1′-biphenyl]-2-carbonitrile]
  EC75, mexY (EC) strain, EM: A (12.5 μM<EC75≤25 μM)

## CCOc1cccc(F)c1CN1CCN(C(=O)[C@H](N)C2CCN(CCC34CC5CC(CC(C5)C3)C4)CC2)CC1 [Example 125]
  EC75, mexY (EC) strain, EM: A (12.5 μM<EC75≤25 μM)

## CCOc1cccc(F)c1CN1CCN(C(=O)[C@H](N)C2CCN(CCC3(C)CCCCC3)CC2)CC1 [Example 126, Hydrochloride of (R)-2-amino-1-(4-(2-ethoxy-6-fluorobenzyl)piperazin-1-yl)-2-(1-(2-(1-methylcyclohexyl)ethyl)piperidin-4-yl)ethan-1-one]
  EC75, mexY (EC) strain, EM: A (12.5 μM<EC75≤25 μM)
  EC75, mexY (EC) strain, LVFX: A (12.5 μM<EC75≤25 μM)

## COc1ccccc1CN1CCN(C(=O)[C@H](NCc2ccccc2)C2CCN(CCc3cccc(Cl)c3)CC2)CC1 [Example 142, hydrochloride of (R)-2-(benzylamino)-2-(1-(3-chlorophenethyl)piperidin-4-yl)-1-(4-(2-methoxybenzyl)piperazin-1-yl)ethan-1-one]
  EC75, mexY (EC) strain, EM: B (25 μM<EC75≤100 μM)
  EC75, mexY (EC) strain, LVFX: B (25 μM<EC75≤100 μM)

## O=C(CN1CCN(CCc2ccccc2)CC1)N1CCN(CC2CCCCC2)CC1 [Example 210, Hydrochloride of 1-(4-(cyclohexylmethyl)piperazin-1-yl)-2-(4-phenethylpiperazin-1-yl)ethan-1-one]
  EC75, mexY (EC) strain, EM: B (25 μM<EC75≤100 μM)

## COc1ccccc1CN1CCN(C(=O)CN2CCN(CCc3ccoc3)CC2)CC1 [Example 291, 2-(4-(2-(Furan-3-yl)ethyl)piperazin-1-yl)-1-(4-(2-methoxybenzyl)piperazin-1-yl)ethan-1-one and hydrochloride thereof]
  EC75, mexY (EC) strain, EM: B (25 μM<EC75≤100 μM)

## COc1ccccc1CN1CCN(C(=O)C(F)(F)C2CCN(CCc3ccccc3)CC2)CC1 [Example 299, hydrochloride of 2,2-difluoro-1-(4-(2-methoxybenzyl)piperazin-1-yl)-2-(1-phenethylpiperidin-4-yl)ethan-1-one]
  EC75, mexY (EC) strain, EM: B (25 μM<EC75≤100 μM)
  EC75, mexY (EC) strain, LVFX: B (25 μM<EC75≤100 μM)
